Data: patent US20070155687A1, “Methods and compositions for altering cell function” (Alltech, Inc., priority 2005, published 2007)

Key:
Format in all cases: in vivo
[1] = test system: Glutathione Peroxidase 1; assay: Intestinal gene expression (microarray): Glutathione Peroxidase 1; conditions: mouse intestine; diet 1 ppm Se, 100 days; vs selenium deficient; all p < 0.01
From the text: (§1) Animal Care. Male C57BL/6J mice were housed singly and started on the experimental diets described below immediately after weaning (21 days of age). The mice were maintained in the Shared Aging Rodent Facility at the William S. Middleton Memorial Veterans Administration Medical Center (Madison, Wis.). Temperature and humidity were maintained at constant levels. Room light was controlled to provide 12-hr cycles of light and dark.
(§2) Experimental diets were created by Harlan Teklad (Madison, Wis.). Selenium content of the diets was determined by Covance Inc. (Madison, Wis.). Five (5) animals were included in each of the following treatment groups: a diet deficient in selenium (SD); a diet supplemented with selenomethionine (SM, obtained from Sigma, St. Louis, Mo.) such that the final selenium content of the diet was one (1) part per million; a diet supplemented with sodium selenite (SS, Sigma) such that the final concentration of selenium in this diet was one (1) part per million; or a diet supplemented with the yeast selenium SEL-PLEX (SP, Alltech, Lexington, Ky), such that the final concentration of selenium in this diet was one (1) part per million. SEL-PLEX. […]
(§3) Tissue sample preparation and microarray analysis. […] For intestinal expression studies, the intestine was flushed twice with saline solution and small intestine was measured and divided in three equal segments. […]

[2] = test system: Glutathione Peroxidase 3; assay: Intestinal gene expression (microarray): Glutathione Peroxidase 3; conditions: mouse intestine; diet 1 ppm Se, 100 days; vs selenium deficient; all p < 0.01
From the text: as §1, §2, §3

[3] = test system: Selenoprotein W (SelW); assay: Intestinal gene expression: Selenoprotein W; conditions: mouse intestine; diet 1 ppm Se, 100 days; vs selenium deficient
From the text: as §1, §2, §3

[4] = test system: SelR (also known as Selenoprotein X1); assay: Intestinal gene expression: SelR; conditions: mouse intestine; diet 1 ppm Se, 100 days; vs selenium deficient
From the text: as §1, §2, §3

[5] = test system: Complement component 1, q subcomponent, alpha polypeptide, C1qa; assay: Cerebral cortex gene expression: C1qa; conditions: mouse cerebral cortex; diet 1 ppm Se, 100 days; vs selenium deficient; * = significant, p<0.01
From the text: as §1, §2, §3

[6] = test system: Complement component 1, q subcomponent, gamma polypeptide, C1qg; assay: Cerebral cortex gene expression: C1qg; conditions: mouse cerebral cortex; diet 1 ppm Se, 100 days; vs selenium deficient; * = significant, p<0.01
From the text: as §1, §2, §3

[7] = test system: Complement component 1, r subcomponent, C1r; assay: Cerebral cortex gene expression: C1r; conditions: mouse cerebral cortex; diet 1 ppm Se, 100 days; vs selenium deficient; * = significant, p<0.01
From the text: as §1, §2, §3

[8] = test system: Cathepsin B; assay: Cerebral cortex gene expression: Cathepsin B; conditions: mouse cerebral cortex; diet 1 ppm Se, 100 days; * downregulation significant relative to Se-deficient mice
From the text: as §1, §2, §3

[9] = test system: Cathepsin D; assay: Cerebral cortex gene expression: Cathepsin D; conditions: mouse cerebral cortex; diet 1 ppm Se, 100 days; * downregulation significant relative to Se-deficient mice
From the text: as §1, §2, §3

[10] = test system: Cathepsin Z; assay: Cerebral cortex gene expression: Cathepsin Z; conditions: mouse cerebral cortex; diet 1 ppm Se, 100 days; * downregulation significant relative to Se-deficient mice
From the text: as §1, §2, §3

[11] = test system: Cathepsin O; assay: Cerebral cortex gene expression: Cathepsin O; conditions: mouse cerebral cortex; diet 1 ppm Se, 100 days; * downregulation significant relative to Se-deficient mice
From the text: as §1, §2, §3

[12] = test system: Nicastrin; assay: Cerebral cortex gene expression: Nicastrin; conditions: mouse cerebral cortex; diet 1 ppm Se, 100 days; * significant relative to Se-deficient animals, P < 0.01
From the text: as §1, §2, §3

[13] = test system: Presenilin 1; assay: Cerebral cortex gene expression: Presenilin 1; conditions: mouse cerebral cortex; diet 1 ppm Se, 100 days; * significant relative to Se-deficient animals, P < 0.01
From the text: as §1, §2, §3

[14] = test system: Amyloid beta (A4) precursor protein-binding, family B, member 1 (Apbb1 or Fe65); assay: Cerebral cortex gene expression: Apbb1/Fe65; conditions: mouse cerebral cortex; diet 1 ppm Se, 100 days; * significant relative to Se-deficient animals, P < 0.01
From the text: as §1, §2, §3

[15] = test system: Amyloid beta (A4) precursor-like protein (Aplp 1); assay: Cerebral cortex gene expression: Aplp 1; conditions: mouse cerebral cortex; diet 1 ppm Se, 100 days; * significant relative to Se-deficient animals, P < 0.01
From the text: as §1, §2, §3

[16] = test system: Amyloid beta (A4) precursor protein-binding, family A, member 1(Apba1); assay: Cerebral cortex gene expression: Apba1; conditions: mouse cerebral cortex; diet 1 ppm Se, 100 days; * significant relative to Se-deficient animals, P < 0.01
From the text: as §1, §2, §3

[17] = test system: Junb; assay: Cerebral cortex gene expression: Junb; conditions: mouse brain (neocortex); diet 1 ppm Se, 100 days; * significant relative to Se-deficient animals
From the text: as §1, §2, §3

[18] = test system: Gadd45b; assay: Brain gene expression: Gadd45b; conditions: mouse brain; diet 1 ppm Se, 100 days; * significant relative to Se-deficient animals
From the text: as §1, §2, §3

[19] = test system: Gadd45g1p (Growth arrest and DNA-damage inducible 45 gamma interacting protein); assay: Brain gene expression: Gadd45g1p; conditions: mouse brain; diet 1 ppm Se, 100 days; * significant relative to Se-deficient animals
From the text: as §1, §2, §3

[20] = test system: Gst pi 1 (Gstp1); assay: Brain gene expression: Gstp1; conditions: mouse brain; diet 1 ppm Se, 100 days; * significant relative to Se-deficient animals
From the text: as §1, §2, §3

[21] = test system: Gst zeta 1 (Gstz1); assay: Brain gene expression: Gstz1; conditions: mouse brain; diet 1 ppm Se, 100 days; * significant relative to Se-deficient animals
From the text: as §1, §2, §3

Row | SMILES | fold change (FC) in Glutathione Peroxidase 1 gene expression [1] | fold change (FC) in Glutathione Peroxidase 3 gene expression [2] | Selenoprotein W (SelW) expression, upregulated [3] | SelR gene expression, upregulated [4] | FC C1qa expression [5] | FC C1qg expression [6] | FC C1r expression [7] | FC Cathepsin B expression [8] | FC Cathepsin D expression [9] | FC Cathepsin Z expression [10] | FC Cathepsin O expression [11] | FC Nicastrin expression [12] | FC Presenilin 1 expression [13] | FC Apbb1 (Fe65) expression [14] | FC Aplp 1 expression [15] | FC Apba1 expression [16] | FC Junb expression [17] | FC Gadd45b expression [18] | FC Gadd45g1p expression [19] | FC Gstp1 expression [20] | also measured
1 | C[Se]CC[C@H](N)C(=O)O [SeM, selenomethionine] | 4.9 fold | 4.6 fold | not significantly altered | not significantly affected | −1.11 fold | 1.0 fold | 1.04 fold | −1.03 fold | 1.02 fold | −1.13 fold | −1.16 fold | 1.04 fold | 1.02 fold | 1.02 fold | 1.02 fold | 1.08 fold | −1.38 fold | −1.26 fold | 1.02 fold | −1.04 fold | FC Gstz1 expression [21]: −1.08 fold
2 | O=[Se](O)O [Sod-sel, sodium selenite] | 4.1 fold | 3.5 fold | 5.1 fold | 1.3 fold | −1.18 fold | −1.07 fold | −1.29 fold | −1.13* fold | −1.24* fold | −1.30* fold | −1.18 fold | −1.67* fold | −1.11 fold | −1.32* fold | −1.55* fold | −1.41 fold | −1.59 fold | −1.39* fold | −1.12 fold | 1.02 fold | FC Gstz1 expression [21]: −1.3 fold
